Reference: publication PMC12102759 (Protein Science : A Publication of the Protein Society, 2025)
Like-named read-outs stand apart in the source and are kept apart here.

Test system: PABPC1 PABC
Assay type: binding, human
Settings: DMS-BM library, bait PABPC1 PABC, row aa = residue at this position; for DMS-derived PSSM value, position E10 / DMS-derived PSSM value, position E8 / DMS-derived PSSM value (averaged), position E8: E = wild type; for DMS-derived PSSM value, position A6: A = wild type; for DMS-derived PSSM value, position R14 / DMS-derived PSSM value (averaged), position R12: R = wild type
[1] = prey ATXN2, peptide TLNPNAKEFNPRSFSQ, N = wild type
[2] = prey ATXN2, peptide KSTLNPNAKEFNPRSF
[3] = prey ATXN2, TLNPNAKEFNPRSF(averaged) over the two overlapping peptides, K = wild type
[4] = prey ATXN2, peptide TLNPNAKEFNPRSFSQ, P = wild type
[5] = prey ATXN2, peptide KSTLNPNAKEFNPRSF, N = wild type
[6] = prey ATXN2, peptide TLNPNAKEFNPRSFSQ
[7] = prey ATXN2, peptide KSTLNPNAKEFNPRSF, S = wild type
[8] = prey ATXN2, TLNPNAKEFNPRSF(averaged) over the two overlapping peptides, P = wild type
[9] = prey ATXN2, TLNPNAKEFNPRSF(averaged) over the two overlapping peptides
[10] = prey ATXN2, peptide TLNPNAKEFNPRSFSQ, F = wild type
[11] = prey ATXN2, TLNPNAKEFNPRSF(averaged) over the two overlapping peptides, F = wild type
[12] = prey ATXN2, peptide TLNPNAKEFNPRSFSQ, L = wild type
[13] = prey ATXN2, peptide TLNPNAKEFNPRSFSQ, S = wild type
[14] = prey ATXN2, TLNPNAKEFNPRSF(averaged) over the two overlapping peptides, N = wild type
[15] = prey ATXN2, peptide TLNPNAKEFNPRSFSQ, T = wild type

TLNPNAKEFNPRSFSQ N10F (TLNPNAKEFFPRSFSQ)
DMS-derived PSSM value, position N10 [1]: 0.002727

KSTLNPNAKEFNPRSF E10Y (KSTLNPNAKYFNPRSF)
DMS-derived PSSM value, position E10 [2]: 0

TLNPNAKEFNPRSF(averaged) K7M (TLNPNAMEFNPRSF)
DMS-derived PSSM value (averaged), position K7 [3]: 0.05548

TLNPNAKEFNPRSFSQ P11L (TLNPNAKEFNLRSFSQ)
DMS-derived PSSM value, position P11 [4]: 0.02416

KSTLNPNAKEFNPRSF N5H (KSTLHPNAKEFNPRSF)
DMS-derived PSSM value, position N5 [5]: 0

TLNPNAKEFNPRSFSQ P4Y (TLNYNAKEFNPRSFSQ)
DMS-derived PSSM value, position P4 [4]: 0

KSTLNPNAKEFNPRSF N5S (KSTLSPNAKEFNPRSF)
DMS-derived PSSM value, position N5 [5]: 0.0715

TLNPNAKEFNPRSFSQ A6W (TLNPNWKEFNPRSFSQ)
DMS-derived PSSM value, position A6 [6]: 0

TLNPNAKEFNPRSFSQ P4M (TLNMNAKEFNPRSFSQ)
DMS-derived PSSM value, position P4 [4]: 0.001164

TLNPNAKEFNPRSF(averaged) K7F (TLNPNAFEFNPRSF)
DMS-derived PSSM value (averaged), position K7 [3]: 0.04105

KSTLNPNAKEFNPRSF S2T (KTTLNPNAKEFNPRSF)
DMS-derived PSSM value, position S2 [7]: 0.02133

TLNPNAKEFNPRSF(averaged) P4T (TLNTNAKEFNPRSF)
DMS-derived PSSM value (averaged), position P4 [8]: 0.01555

TLNPNAKEFNPRSF(averaged) T1I (ILNPNAKEFNPRSF)
DMS-derived PSSM value (averaged), position T1 (prey ATXN2, TLNPNAKEFNPRSF(averaged) over the two overlapping peptides, T = wild type): 0.08555

KSTLNPNAKEFNPRSF S15N (KSTLNPNAKEFNPRNF)
DMS-derived PSSM value, position S15 [7]: 0.1002

TLNPNAKEFNPRSFSQ N10Q (TLNPNAKEFQPRSFSQ)
DMS-derived PSSM value, position N10 [1]: 0.09458

TLNPNAKEFNPRSF(averaged) P11G (TLNPNAKEFNGRSF)
DMS-derived PSSM value (averaged), position P11 [8]: 0.05139

TLNPNAKEFNPRSFSQ P11N (TLNPNAKEFNNRSFSQ)
DMS-derived PSSM value, position P11 [4]: 0.04264

TLNPNAKEFNPRSF(averaged) S13L (TLNPNAKEFNPRLF)
DMS-derived PSSM value (averaged), position S13 (prey ATXN2, TLNPNAKEFNPRSF(averaged) over the two overlapping peptides, S = wild type): 0.2429

TLNPNAKEFNPRSFSQ A6L (TLNPNLKEFNPRSFSQ)
DMS-derived PSSM value, position A6 [6]: 0

TLNPNAKEFNPRSFSQ E8K (TLNPNAKKFNPRSFSQ)
DMS-derived PSSM value, position E8 [6]: 0

KSTLNPNAKEFNPRSF T3V (KSVLNPNAKEFNPRSF)
DMS-derived PSSM value, position T3 (prey ATXN2, peptide KSTLNPNAKEFNPRSF, T = wild type): 0.2131

TLNPNAKEFNPRSF(averaged) E8S (TLNPNAKSFNPRSF)
DMS-derived PSSM value (averaged), position E8 [9]: 0.04903

KSTLNPNAKEFNPRSF S2D (KDTLNPNAKEFNPRSF)
DMS-derived PSSM value, position S2 [7]: 0.01347

KSTLNPNAKEFNPRSF E10H (KSTLNPNAKHFNPRSF)
DMS-derived PSSM value, position E10 [2]: 0.3776

TLNPNAKEFNPRSFSQ F14I (TLNPNAKEFNPRSISQ)
DMS-derived PSSM value, position F14 [10]: 0.0189

TLNPNAKEFNPRSF(averaged) F14E (TLNPNAKEFNPRSE)
DMS-derived PSSM value (averaged), position F14 [11]: 0.01777

KSTLNPNAKEFNPRSF P6F (KSTLNFNAKEFNPRSF)
DMS-derived PSSM value, position P6 (prey ATXN2, peptide KSTLNPNAKEFNPRSF, P = wild type): 0

KSTLNPNAKEFNPRSF N7G (KSTLNPGAKEFNPRSF)
DMS-derived PSSM value, position N7 [5]: 0

KSTLNPNAKEFNPRSF F16W (KSTLNPNAKEFNPRSW)
DMS-derived PSSM value, position F16 (prey ATXN2, peptide KSTLNPNAKEFNPRSF, F = wild type): 0.01686

TLNPNAKEFNPRSFSQ L2M (TMNPNAKEFNPRSFSQ)
DMS-derived PSSM value, position L2 [12]: 0.1261

TLNPNAKEFNPRSF(averaged) F9R (TLNPNAKERNPRSF)
DMS-derived PSSM value (averaged), position F9 [11]: 0

TLNPNAKEFNPRSFSQ L2R (TRNPNAKEFNPRSFSQ)
DMS-derived PSSM value, position L2 [12]: 0

TLNPNAKEFNPRSFSQ E8F (TLNPNAKFFNPRSFSQ)
DMS-derived PSSM value, position E8 [6]: 0

TLNPNAKEFNPRSFSQ L2W (TWNPNAKEFNPRSFSQ)
DMS-derived PSSM value, position L2 [12]: 0.1455

KSTLNPNAKEFNPRSF S15I (KSTLNPNAKEFNPRIF)
DMS-derived PSSM value, position S15 [7]: 0.03802

TLNPNAKEFNPRSF(averaged) P4Y (TLNYNAKEFNPRSF)
DMS-derived PSSM value (averaged), position P4 [8]: 0

TLNPNAKEFNPRSFSQ S15F (TLNPNAKEFNPRSFFQ)
DMS-derived PSSM value, position S15 [13]: 0.01014

TLNPNAKEFNPRSF(averaged) N5I (TLNPIAKEFNPRSF)
DMS-derived PSSM value (averaged), position N5 [14]: 0.2839

TLNPNAKEFNPRSFSQ P4S (TLNSNAKEFNPRSFSQ)
DMS-derived PSSM value, position P4 [4]: 0.01574

TLNPNAKEFNPRSF(averaged) E8Y (TLNPNAKYFNPRSF)
DMS-derived PSSM value (averaged), position E8 [9]: 0.02496

TLNPNAKEFNPRSF(averaged) K7H (TLNPNAHEFNPRSF)
DMS-derived PSSM value (averaged), position K7 [3]: 0.03669

TLNPNAKEFNPRSF(averaged) N10P (TLNPNAKEFPPRSF)
DMS-derived PSSM value (averaged), position N10 [14]: 0.03074

KSTLNPNAKEFNPRSF R14T (KSTLNPNAKEFNPTSF)
DMS-derived PSSM value, position R14 [2]: 0.1913

TLNPNAKEFNPRSF(averaged) E8M (TLNPNAKMFNPRSF)
DMS-derived PSSM value (averaged), position E8 [9]: 0.02105

KSTLNPNAKEFNPRSF E10L (KSTLNPNAKLFNPRSF)
DMS-derived PSSM value, position E10 [2]: 0

TLNPNAKEFNPRSFSQ P11D (TLNPNAKEFNDRSFSQ)
DMS-derived PSSM value, position P11 [4]: 0.005508

KSTLNPNAKEFNPRSF S15P (KSTLNPNAKEFNPRPF)
DMS-derived PSSM value, position S15 [7]: 0.04178

TLNPNAKEFNPRSFSQ S13V (TLNPNAKEFNPRVFSQ)
DMS-derived PSSM value, position S13 [13]: 0.02255

TLNPNAKEFNPRSF(averaged) R12G (TLNPNAKEFNPGSF)
DMS-derived PSSM value (averaged), position R12 [9]: 0.06327

TLNPNAKEFNPRSF(averaged) R12V (TLNPNAKEFNPVSF)
DMS-derived PSSM value (averaged), position R12 [9]: 0.08681

TLNPNAKEFNPRSF(averaged) R12N (TLNPNAKEFNPNSF)
DMS-derived PSSM value (averaged), position R12 [9]: 0.02727

TLNPNAKEFNPRSFSQ L2D (TDNPNAKEFNPRSFSQ)
DMS-derived PSSM value, position L2 [12]: 0

KSTLNPNAKEFNPRSF R14Q (KSTLNPNAKEFNPQSF)
DMS-derived PSSM value, position R14 [2]: 0.09624

TLNPNAKEFNPRSFSQ T1M (MLNPNAKEFNPRSFSQ)
DMS-derived PSSM value, position T1 [15]: 0.006287

KSTLNPNAKEFNPRSF S2P (KPTLNPNAKEFNPRSF)
DMS-derived PSSM value, position S2 [7]: 0.1938

TLNPNAKEFNPRSFSQ P11E (TLNPNAKEFNERSFSQ)
DMS-derived PSSM value, position P11 [4]: 0.0006031

TLNPNAKEFNPRSFSQ F14D (TLNPNAKEFNPRSDSQ)
DMS-derived PSSM value, position F14 [10]: 0.0175

TLNPNAKEFNPRSF(averaged) L2S (TSNPNAKEFNPRSF)
DMS-derived PSSM value (averaged), position L2 (prey ATXN2, TLNPNAKEFNPRSF(averaged) over the two overlapping peptides, L = wild type): 0

KSTLNPNAKEFNPRSF R14A (KSTLNPNAKEFNPASF)
DMS-derived PSSM value, position R14 [2]: 0.09772

KSTLNPNAKEFNPRSF K9W (KSTLNPNAWEFNPRSF)
DMS-derived PSSM value, position K9 (prey ATXN2, peptide KSTLNPNAKEFNPRSF, K = wild type): 0.002107

TLNPNAKEFNPRSFSQ S15H (TLNPNAKEFNPRSFHQ)
DMS-derived PSSM value, position S15 [13]: 0.01215

TLNPNAKEFNPRSFSQ T1E (ELNPNAKEFNPRSFSQ)
DMS-derived PSSM value, position T1 [15]: 0.003724

KSTLNPNAKEFNPRSF N5V (KSTLVPNAKEFNPRSF)
DMS-derived PSSM value, position N5 [5]: 0

TLNPNAKEFNPRSF(averaged) N10T (TLNPNAKEFTPRSF)
DMS-derived PSSM value (averaged), position N10 [14]: 0.03227

TLNPNAKEFNPRSF(averaged) K7V (TLNPNAVEFNPRSF)
DMS-derived PSSM value (averaged), position K7 [3]: 0.003972

TLNPNAKEFNPRSF(averaged) K7N (TLNPNANEFNPRSF)
DMS-derived PSSM value (averaged), position K7 [3]: 0.09977

TLNPNAKEFNPRSFSQ P11Q (TLNPNAKEFNQRSFSQ)
DMS-derived PSSM value, position P11 [4]: 0.01526

TLNPNAKEFNPRSFSQ F14H (TLNPNAKEFNPRSHSQ)
DMS-derived PSSM value, position F14 [10]: 0.09586
